The text below walks through data of patent US7384935B2 (Thallion Pharmaceuticals, Inc., priority 2005, dated 2008).

One data set can be described thus: in vivo. To be noted: Sprague-Dawley, rat, plasma, iv, 30 mg/kg.
For data set [1], the system named is HT-29 (colorectal carcinoma). In words: In vitro cytotoxic activity (GI50), propidium iodide dye indicator. The note with it: read-out: In vitro Cytotoxic Activities GI50, HT-29.
Data set [2] concerns HT-29, SF268, MDA-MB-231 and PC-3. In words: In vitro cytotoxic activity, four cell lines together (average / overall statement). To be noted: for GI50: read-out: In vitro Cytotoxic Activities GI50, Average; for exhibited in vitro anticancer activity at 30 μM: four cell lines.
Data set [3] concerns PC-3 (prostate adenocarcinoma). Description: In vitro cytotoxic activity (GI50), propidium iodide dye indicator. Format: cell-based. To be noted: PC-3, 96 hrs incubation; read-out: In vitro Cytotoxic Activities GI50, PC-3. The source says: (§1) Procedure used for the tests is described below.
Data set [4] relates to MDA-MB-231 (mammary gland adenocarcinoma). Described as above. Format: cell-based. To be noted: MDA-MB-231, 96 hrs incubation, read-out: In vitro Cytotoxic Activities GI50, MDA-MB-231.
Description: as §1

A further data set has as its system SF268 (CNS). The data set is described as above. To be noted: SF-268, 96 hrs incubation, read-out: In vitro Cytotoxic Activities GI50, SF-268. The data set is classed as cell-based.
Description: as §1

A short description of data set [5]: Conversion to Compound 1 by rat liver homogenate. To be noted: 37° C. The data set is classed as in vitro ADME, Sprague Dawley rats. As to the method:
The aim of this test was to determine if the phosphate prodrugs were cleaved by phosphatases present in the liver.
Rat liver (3 g from Sprague Dawley rats) was weighed into a centrifuge tube and 12 mL of Buffer A was added, representing a 1:4 tissue/buffer ratio, which were homogenized for at least 30 seconds at ambient temperature.
Stock solutions of test article, control and internal standards were prepared as shown in Table 8 by diluting the compound in the appropriate solvent.
Liver homogenate (180 μL) was transferred into Eppendorf™ tubes (polypropylene, size 1.8 mL). Tubes for Blank, 0 min, 30 min, 1 h, 2 h, 3 h, 4 h and 5 h for each concentration of compound to be tested. Blank tubes were prepared by adding 200 μL of homogenate per tube.
Immediately after vortexing, the 0 min samples (for calibration) were extracted with extraction Methods A and B (see below). The remaining tubes were incubated at 37° C. for the prescribed length of time.
The mixture was allowed to stand for 10 minutes at room temperature. It was then centrifuged at 13000 RPM for 5 minutes at 4° C. The supernatant was tested by LC-MS/MS (Method B).
A volume of 800 μL of acetonitrile containing IS 200 ng/mL (Stock F) was added to the homogenate and the mixture vortexed for 30 sec. The mixture was allowed to stand at room temperature for 10 minutes, and was centrifuged at 13000 RPM for 5 minutes at 4° C. The supernatant was tested by LC-MS/MS (Method A).
Both LC methods were accomplished using the same HPLC system (Agilent Technologies 1100 with Binary pump and autosampler, and an Agilent 1100 Autosampler needle wash to avoid contamination of the needle. Both MS/MS method were done using a MDS Sciex™ MS system under positive electrospray ionization.
Multiple Reaction Monitoring (MRM) was used as scan type in Method A MS/MS.
LC Method B (long method) was done using 20 μL of test solution on a Waters Symmetry™ C-18, 3.5μ (3.0×100 mm id) and a divert pump flow rate of 1.0 ml/min using the conditions described in Table 10.
Enhanced Product Ion (EPI) was used as scan type in Method B MS/MS.

Where [6] appears, read: average of HT-29, SF-268, PC-3, MDA-MB-231.

Each structure is given as a SMILES string. Like-named read-outs stand apart in the source and are kept apart here. Where only a bound is given, the exact number is not on record here.

Description for in vivo: Each blood sample (approximately 0.5 mL) was collected into microtainer tubes containing anticoagulant K2EDTA. The samples were centrifuged at a temperature ranging from about 2 to about 8° C. for 10 minutes at 1500 g (RCF). A volume of 25 μL of 4% w/v L-aqueous acid was added to a volume of 225 μL of rat plasma in a clean tube, and the samples were mixed by inversion.
LOQ and LOD values were determined according to the concentration range used in the experiment, using a MDS Sciex API 2000™ Q-Trap™. Mean concentration values and standard deviation (SD) were calculated at each timepoints of the pharmacokinetic study (n=3 animals/timepoint).
Blood was collected, centrifuged and analyzed as above.

Regarding `CC(C)=CCC/C(C)=C/CC/C(C)=C/CN1C(=O)c2cccc(O)c2Nc2c(O)cc(O)cc21` [Compound 1, 10-farnesyl4,6,8-trihydroxy-5,10-dihydrodibenzo[b,e][1,4]diazepin-11-one], in the data set “in vivo”, the AUC worked out at 70200 ng·h/mL.

For the molecule `CC(=O)Oc1cc(OC(C)=O)c2c(c1)N(C/C=C(\C)CC/C=C(\C)CCC=C(C)C)C(=O)c1cccc(O)c1N2` [D, reference compound], the GI50 in data set [1] (HT-29, 96 hrs incubation) was found to be 13 µM; in data set [2] (setting [6]), 4.48 µM; in data set [3], 1.35 µM; in data set [4], 1.55 µM; with SF268 (CNS), 2.02 µM.

Take `CC(=O)Oc1cc(O)c2c(c1)N(C/C=C(\C)CC/C=C(\C)CCC=C(C)C)C(=O)c1cccc(OC(C)=O)c1N2` [C, reference compound]: the GI50 in data set [1] (HT-29, 96 hrs incubation) was determined as 16 µM; in data set [2] (setting [6]) it was 8.72 µM; in data set [3], 5.35 µM; in data set [4], 7.72 µM; in the data set on SF268 (CNS) it was 5.79 µM.

Take `CC(C)=CCCC(C)=CCCC(C)=CCN1C(=O)c2cccc(OP(=O)(O)OCc3ccccc3)c2Nc2c(OP(=O)(O)OCc3ccccc3)cc(OP(=O)(O)OCc3ccccc3)cc21.N.N.N` [Compound 9 (NH4^+)3, 10-farnesyl-4,6,8-tri(benzyloxyhydroxyphosphoryloxy)-5,10-dihydro-dibenzo[b,e][1,4]diazepin-11-one triammonium salt]: the GI50 in data set [1] (Homo sapiens, HT-29, 96 h) was above 30 µM; in data set [2], above 30 µM; in data set [3] it was above 30 µM; in data set [4] (Homo sapiens), above 30 µM; in the data set with SF268 (CNS) (Homo sapiens), above 30 µM. The “exhibited in vitro anticancer activity at 30 μM” value (“exhibited” below) in data set [2] was “None”. For the same molecule, the “Concentration of Compound 9 (remaining prodrug) vs Time of Incubation” value was 1840 ng/mL in data set [5] (initial conc. 5 μg/mL in homogenate, 0 min); 2040 ng/mL in data set [5] (initial conc. 5 μg/mL in homogenate, 0.5 h); 2570 ng/mL in data set [5] (initial conc. 5 μg/mL in homogenate, 1 h); 856 ng/mL in data set [5] (initial conc. 5 μg/mL in homogenate, 2 h); 544 ng/mL in data set [5] (initial conc. 5 μg/mL in homogenate, 3 h); “<LOD” in data set [5] (initial conc. 5 μg/mL in homogenate, 4 h). In addition, the “Concentration of Compound 9 (remaining prodrug) vs Time of Incubation” value is “<LOD” in data set [5] (initial conc. 5 μg/mL in homogenate, 5 h); 13300 ng/mL in data set [5] (initial conc. 20 μg/mL in homogenate, 0 min); 14600 ng/mL in data set [5] (initial conc. 20 μg/mL in homogenate, 0.5 h); 9030 ng/mL in data set [5] (initial conc. 20 μg/mL in homogenate, 1 h); 2970 ng/mL in data set [5] (initial conc. 20 μg/mL in homogenate, 2 h); 1530 ng/mL in data set [5] (initial conc. 20 μg/mL in homogenate, 3 h). Besides, the “Concentration of Compound 9 (remaining prodrug) vs Time of Incubation” value in data set [5] (initial conc. 20 μg/mL in homogenate, 4 h) amounted to 1080 ng/mL; in data set [5] (initial conc. 20 μg/mL in homogenate, 5 h), 948 ng/mL. Besides, the solubility in “physchem” is above 40 mg/mL.

With `CC(C)=CCC/C(C)=C/CC/C(C)=C/CN1C(=O)c2cccc(OP(=O)(O)O)c2Nc2c(OP(=O)(O)O)cc(OP(=O)(O)O)cc21` [Compound 16], the GI50 in data set [1] (Homo sapiens, HT-29, 96 h) was above 30 µM; in data set [2] it was above 30 µM; in data set [3], above 30 µM; in data set [4] (Homo sapiens), above 30 µM; with SF268 (CNS) (Homo sapiens), above 30 µM. Also, the “exhibited” value in data set [2] is recorded as “None”. Further, the solubility in “physchem” was above 40 mg/mL.

Regarding `CC(=O)Oc1cc(OC(C)=O)c2c(c1)N(C/C=C(\C)CC/C=C(\C)CCC=C(C)C)C(=O)c1cccc(OC(C)=O)c1N2` [A, reference compound], the GI50 in data set [1] (HT-29, 96 hrs incubation) came out at 9.33 µM; in data set [2] (setting [6]) it was 3.82 µM; in data set [3], 1.2 µM; in data set [4], 2.79 µM; in the data set on SF268 (CNS) it was 1.95 µM.

Take `CC(C)=CCC/C(C)=C/CC/C(C)=C/CN1C(=O)c2cccc(OP(=O)(OCc3ccccc3)OCc3ccccc3)c2Nc2c(OP(=O)(OCc3ccccc3)OCc3ccccc3)cc(OP(=O)(OCc3ccccc3)OCc3ccccc3)cc21` [Compound 2, 10-farnesyl-4,6,8-tri(bisbenzyloxyphosphoryloxy)-5,10-dihydro-dibenzo[b,e][1,4]diazepin-11-one]: the GI50 in data set [1] (Homo sapiens, HT-29, 96 h) was above 30 µM; in data set [2] it was above 30 µM; in data set [3] it was above 30 µM; in data set [4] (Homo sapiens), above 30 µM; in the data set with SF268 (CNS) (Homo sapiens), above 30 µM. Moreover, the “exhibited” value in data set [2] is listed as “None”.

Take `CC(=O)Oc1cccc2c1Nc1c(OC(C)=O)cc(O)cc1N(C/C=C(\C)CC/C=C(\C)CCC=C(C)C)C2=O` [B, reference compound]: the GI50 in data set [1] (HT-29, 96 hrs incubation) came out at 12.6 µM; in data set [2] (setting [6]) it was 4.6 µM; in data set [3], 1.44 µM; in data set [4], 2.48 µM; in the data set with SF268 (CNS), 1.88 µM.

As for `CC(C)=CCC/C(C)=C/CC/C(C)=C/CN1C(=O)c2cccc(O)c2Nc2c(OP(=O)(O)O)cc(O)cc21.N.N` [Compound 21 (NH4^+)2, 4,8-dihydroxy-10-farnesyl-6-phosphonooxy-5,10-dihydro-dibenzo[b,e][1,4]diazepin-11-one diammonium salt], the GI50 in data set [1] (Homo sapiens, HT-29, 96 h) was above 30 µM; in data set [2], above 30 µM; in data set [3] it was above 30 µM; in data set [4] (Homo sapiens) it was above 30 µM; in the data set with SF268 (CNS) (Homo sapiens), above 30 µM. In addition, the “exhibited” value in data set [2] is listed as “None”. The molecule also had a solubility in the data set “physchem” of 5 mg/mL.

As usually defined, the AUC is concentration integrated over time. High values mean high exposure, low ones low exposure. As a reminder, the GI50 is the concentration that inhibits growth by half. A word on the solubility: it is the concentration that dissolves in the medium under given conditions.
